Experimental findings from US10117878B2, “Ligands for nematode nuclear receptors and uses thereof” (priority 2006, dated 2018) are described below.

The target of one data set is T1, GAL4-DAF-12 (Caenorhabditis elegans, UniProt G5EFF5).
T1 construct: 184-754aa (DAF-12); expressed in transfected cells; host or cells: HEK293
The data set is described as follows: Co-transfection assay: GAL4-DAF-12 and GAL4-responsive luciferase reporter in HEK293 cells. The format is cell-based, C. elegans. The following applies: 10 μM sterol, without DAF-9. Background: Reporter assays use an easily measured gene product as a stand-in for the process of interest.

For data set [1], the system named is DAF-12 in the presence of DAF-9. The data set is described as follows: Co-transfection assay: GAL4-DAF-12 reporter in HEK293 cells with co-transfected DAF-9. It is filed as cell-based, C. elegans. Conditions: 10 μM sterol; fold induction of RLU compared to ethanol control. Here is the method:
To screen for sterol-derived ligands of DAF-12 a co-transfection assay in HEK293 cells was performed using a chimeric GAL4-DAF-12 receptor and a GAL4-responsive luciferase reporter. […] Our initial compound screen consisted of bile acids and known vertebrate steroid and endocrine hormones as these compounds are ligands for PXR, VDR and LXR, the closest vertebrate homologs of DAF-12 (Antebi et al., 2000; Mooijaart et al., 2005).

A further data set has as its target T2, human CYP27A1 (Homo sapiens, UniProt Q02318).
T2 construct: expressed in transfected cells; host or cells: HEK293
T2 sequence (Q02318 34-531): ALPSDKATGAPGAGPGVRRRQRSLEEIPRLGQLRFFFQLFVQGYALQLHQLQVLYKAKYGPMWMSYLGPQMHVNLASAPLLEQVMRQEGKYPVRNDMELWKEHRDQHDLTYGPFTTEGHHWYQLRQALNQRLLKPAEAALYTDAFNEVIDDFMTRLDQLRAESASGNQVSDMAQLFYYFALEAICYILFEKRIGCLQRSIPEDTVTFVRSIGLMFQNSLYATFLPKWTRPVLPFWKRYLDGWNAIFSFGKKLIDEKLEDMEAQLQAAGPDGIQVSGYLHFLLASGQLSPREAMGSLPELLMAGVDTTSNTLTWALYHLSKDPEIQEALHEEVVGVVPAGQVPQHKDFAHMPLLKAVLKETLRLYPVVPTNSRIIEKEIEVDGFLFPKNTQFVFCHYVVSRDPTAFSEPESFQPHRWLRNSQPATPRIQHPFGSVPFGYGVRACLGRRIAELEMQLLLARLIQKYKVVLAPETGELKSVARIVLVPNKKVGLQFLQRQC
The data set is described as follows: Co-transfection of HEK293 cells with GAL4-DAF-12, human CYP27A1 and bovine adrenodoxin. The format is cell-based. Conditions: sterol 25 μM; bovine adrenodoxin co-transfected.

The target of a further data set is T3, mouse CYP27A1 (Mus musculus, UniProt Q9DBG1).
T3 construct: expressed in transfected cells; host or cells: HEK293
T3 sequence (Q9DBG1 33-533): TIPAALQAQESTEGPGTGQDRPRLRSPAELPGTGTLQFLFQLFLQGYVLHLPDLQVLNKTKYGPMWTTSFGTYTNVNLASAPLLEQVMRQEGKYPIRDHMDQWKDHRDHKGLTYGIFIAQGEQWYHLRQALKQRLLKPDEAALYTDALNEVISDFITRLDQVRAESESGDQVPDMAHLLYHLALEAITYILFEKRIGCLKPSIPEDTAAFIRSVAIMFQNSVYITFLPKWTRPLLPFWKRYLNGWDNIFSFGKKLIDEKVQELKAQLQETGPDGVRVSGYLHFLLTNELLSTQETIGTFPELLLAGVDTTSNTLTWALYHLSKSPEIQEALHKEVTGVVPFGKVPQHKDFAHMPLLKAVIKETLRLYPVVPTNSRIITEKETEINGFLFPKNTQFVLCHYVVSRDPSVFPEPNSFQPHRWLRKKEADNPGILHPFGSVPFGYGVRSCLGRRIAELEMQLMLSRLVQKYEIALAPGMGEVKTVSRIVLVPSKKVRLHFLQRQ
As to the kind of experiment: Co-transfection of HEK293 cells with GAL4-DAF-12, mouse CYP27A1 and bovine adrenodoxin. The following applies: sterol 25 μM; bovine adrenodoxin co-transfected. It is filed as cell-based.

Data set [2] has as its system DAF-12 homolog with co-transfected DAF-9. The data set is described as follows: Activation of the Anycolostoma ceylancium DAF-12 homolog with co-transfection of DAF-9. The format is cell-based. The source says: This invention contemplates the development of strategies against nematodes, including but not limited to parasitic nematodes. Many parasitic nematodes contain homologs of the orphan nuclear receptor DAF-12, which, as described above, is a key regulator of reproductive development in C. elegans. See, e.g., Siddiqui et al. (2000). In accordance with the present invention, therefore, ligands that are operative in the DAF-9/DAF-12 pathway in C. elegans will affect the life cycles of parasitic nematodes similarly. The inventors have discovered in Anycolostoma ceylancium, for example, a DAF-12 homolog that is activated by DAF-12 ligands, identified pursuant to this invention.

Data set [3] deals with DAF-12 ligand binding domain (Caenorhabditis elegans, UniProt G5EFF5). The following applies: 1:5000 dilution of DAF-9 microsomes incubated with 100 μM sterol.
Sequence of DAF-12 ligand binding domain (G5EFF5 507-753): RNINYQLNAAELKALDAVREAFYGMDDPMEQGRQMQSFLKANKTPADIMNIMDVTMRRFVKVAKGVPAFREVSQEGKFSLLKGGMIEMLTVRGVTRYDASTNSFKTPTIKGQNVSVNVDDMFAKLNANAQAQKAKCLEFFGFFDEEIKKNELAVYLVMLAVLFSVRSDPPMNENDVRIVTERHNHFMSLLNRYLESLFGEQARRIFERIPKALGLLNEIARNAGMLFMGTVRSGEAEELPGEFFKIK
In another data set the test system is daf-9(dh6) null worms. As to the kind of experiment: Rescue of daf-9 null worms by extracts of sterols incubated with DAF-9 or control microsomes.
Setting [4] is: extracts from DAF-9 microsomes incubated with 100 μM sterol.

Each structure is given as a SMILES string.

T1 sequence (G5EFF5 184-753): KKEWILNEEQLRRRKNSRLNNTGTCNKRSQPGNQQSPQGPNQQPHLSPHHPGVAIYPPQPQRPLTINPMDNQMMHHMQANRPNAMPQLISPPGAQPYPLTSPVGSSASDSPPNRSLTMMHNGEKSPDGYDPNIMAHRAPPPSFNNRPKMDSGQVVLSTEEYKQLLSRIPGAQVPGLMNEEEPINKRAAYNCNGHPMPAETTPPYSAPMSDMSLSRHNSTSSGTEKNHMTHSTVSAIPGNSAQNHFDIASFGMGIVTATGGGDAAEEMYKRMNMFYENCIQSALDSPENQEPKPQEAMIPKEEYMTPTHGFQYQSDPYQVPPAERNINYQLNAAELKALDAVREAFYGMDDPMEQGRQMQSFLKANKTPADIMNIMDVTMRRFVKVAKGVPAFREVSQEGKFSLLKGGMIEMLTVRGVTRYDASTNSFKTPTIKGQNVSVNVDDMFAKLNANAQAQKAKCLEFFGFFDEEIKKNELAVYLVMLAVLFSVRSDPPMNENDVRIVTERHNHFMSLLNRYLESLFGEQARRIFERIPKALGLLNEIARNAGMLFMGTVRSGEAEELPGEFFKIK
Experimental for daf-9(dh6) null worms: Microsomes containing hOR or hOR and Daf-9 generated from Sf9 cells were thawed on ice and added to a final concentration of 0.5 mg/mL in 0.1M potassium phosphate buffer in the presence of an NADPH regenerating system (50 U/mL DL-isocitrate dehydrogenase, 0.1 M isocitrate and 0.1 M MgCl2). Substrates were added from stock solutions at 10^−2 M to a final concentration of 100 μM (final reaction volume of 0.5 mL). The mixture was preincubated for 3 min at 37° C. and the reaction was initiated by the addition of NADPH (1 mM). After 16 hrs, the reactions were stopped by extraction with 2×2 mL of methyl-tert-butyl-ether and the top layers were combined and dried under nitrogen. In some experiments, 0.5 μg of 1,4-cholestadiene-3-one was added as an internal standard for the extraction.
Individual 3-keto sterols and their respective 3β-hydroxy sterols were incubated with Sf9 cell microsomes co-expressing DAF-9 and the human P450 oxidoreductase (hOR). As a control, microsomes from cells expressing hOR alone were used.
Experimental for human CYP27A1: (§1) Therefore, the ability of CYP27A1 to metabolize 4-cholesten-3-one into a DAF-12 activator was tested.
Experimental for mouse CYP27A1: as §1

For `CC(C)CCC[C@@H](C)[C@H]1CC[C@H]2C3=CC[C@H]4CC(=O)CC[C@]4(C)[C@H]3CC[C@]12C` [lathosterone], the “DAF-9 independent activation of GAL4-DAF-12 (in words)” value on GAL4-DAF-12 is “required the presence of DAF-9”. Further, the “activation of DAF-12 upon co-transfection with DAF-9” value in data set [1] is 433 fold. In addition, at human CYP27A1, the “activation of GAL4-DAF-12 with co-transfected human CYP27A1” value is given as “had no effect”. The “activation of GAL4-DAF-12 with co-transfected mouse CYP27A1” value on mouse CYP27A1 was “had no effect”. Besides, in data set [2], the “activation of the DAF-12 homolog with co-transfection of DAF-9” value was “causes activation of this DAF-12 homolog”. In addition, the “ligand binding activity of DAF-9 microsomes incubated with sterol” value in data set [3] was “strong ligand binding activity”. In the data set with daf-9(dh6) null worms (setting [4]), the “effect on daf-9 animals, DAF-9 microsomes (in words)” value is recorded as “indistinguishable from wild-type adults” and the “rescue of the Daf-c phenotypes” value is 100%. For the same compound, in the data set on daf-9(dh6) null worms (extracts from control (hOR only) microsomes incubated with 100 μM sterol), the “effect on daf-9 phenotypes, control microsomes (in words)” value is recorded as “did not rescue any daf-9 phenotypes”.
